Test results from article PMC10202811 (Nature Medicine, 2023).
Where two headings read alike, the source gives them in different places.

Test: Plasma pharmacokinetics of lorlatinib at steady state (LC-MS/MS, non-compartmental analysis)
Type: in vivo, human
Conditions: human; for Cmax: read-out: Cmax; for Tmax: read-out: Tmax
Description: Lorlatinib was isolated from human plasma by a liquid-iquid extraction procedure. […] A linear-log trapezoidal method was used [NT] A best-fit method was used to estimate terminal elimination and to extrapolate any plasma concentration versus time profiles to compute [NT].

[1] = in vivo, 115 mg/m2, Cycle 1 Day 1, Cohort B2, 115 mg/m2 per dose
[2] = in vivo, 115 mg/m2, Cycle 1 Day 1, Cohort A1, 115 mg/m2 per dose, individual patients
[3] = in vivo, 115 mg/m2, Cycle 1 Day 1, patient N0773, Cohort B2, 115 mg/m2 per dose, Dose 75
[4] = in vivo, 115 mg/m2, Cycle 1 Day 15, Cohort A1, 115 mg/m2 per dose, individual patients
[5] = in vivo, 115 mg/m2, Cycle 1 Day 15, patient N0773, Cohort B2, 115 mg/m2 per dose, Dose 75
[6] = plasma, oral, 45 mg/m2, Cohort A1, 45 mg/m2 per dose, C1D15, Geometric Mean, N 3
[7] = plasma, oral, 45 mg/m2, Cohort A1, 45 mg/m2 per dose, C1D15, Median, N 3
[8] = plasma, oral, 45 mg/m2, Cycle 1 Day 1, Cohort A1, 45 mg/m2 per dose, individual patients
[9] = plasma, oral, 60 mg/m2, Cohort A1, 60 mg/m2 per dose, C1D15, Median, N 3

C[C@H]1Oc2cc(cnc2N)-c2c(nn(C)c2C#N)CN(C)C(=O)c2ccc(F)cc21 [Lorlatinib, (10R)-7-amino-12-fluoro-2,10,16-trimethyl-15-oxo-10,15,16,17-tetrahydro-2H-8,4-(metheno)pyrazolo[4,3-h][2,5,11]-benzoxadiazacyclotetradecine-3-carbonitrile]
AUC (in vivo, 115 mg/m2, Cycle 1 Day 1, Cohort B2, 115 mg/m2 per dose, read-out: AUCall): 17700 ng·h/mL | Cmax [1]: 2320 ng/mL | Tmax [1]: 1 h | AUC(0-t) [2]: 14700 ng·h/mL | MRT last [2]: 8.5 h | AUC (in vivo, 115 mg/m2, Cycle 1 Day 1, Cohort A1, 115 mg/m2 per dose, individual patients, read-out: AUCall): 14700 ng·h/mL | Cmax [2]: 1440 ng/mL | Tmax [2]: 2 h | AUC(0-t) [3]: 10800 ng·h/mL | MRT last [3]: 8.24 h | AUC (in vivo, 115 mg/m2, Cycle 1 Day 1, patient N0773, Cohort B2, 115 mg/m2 per dose, Dose 75, read-out: AUCall): 10800 ng·h/mL | Cmax [3]: 1660 ng/mL | MRT inf (in vivo, 115 mg/m2, Cycle 1 Day 15, Cohort A1, 115 mg/m2 per dose, read-out: MRTINF_obs): 11.7 h | MRT inf (in vivo, 115 mg/m2, Cycle 1 Day 15, Cohort A1, 115 mg/m2 per dose, read-out: MRTINF_pred): 11.7 h | MRT inf (in vivo, 115 mg/m2, Cycle 1 Day 15, Cohort B2, 115 mg/m2 per dose, read-out: MRTINF_obs): 13.5 h | MRT inf (in vivo, 115 mg/m2, Cycle 1 Day 15, Cohort B2, 115 mg/m2 per dose, read-out: MRTINF_pred): 13.5 h | Tmax (in vivo, 115 mg/m2, Cycle 1 Day 15, Cohort B2, 115 mg/m2 per dose): 1 h | AUC(0-t) [4]: 8210 ng·h/mL | AUC(0-inf) (in vivo, 115 mg/m2, Cycle 1 Day 15, Cohort A1, 115 mg/m2 per dose, individual patients, read-out: AUCINF_obs): 10800 ng·h/mL | AUC(0-inf) (in vivo, 115 mg/m2, Cycle 1 Day 15, Cohort A1, 115 mg/m2 per dose, individual patients, read-out: AUCINF_pred): 10700 ng·h/mL | AUC (in vivo, 115 mg/m2, Cycle 1 Day 15, Cohort A1, 115 mg/m2 per dose, individual patients, read-out: AUC_TAU): 8210 ng·h/mL | AUC (in vivo, 115 mg/m2, Cycle 1 Day 15, Cohort A1, 115 mg/m2 per dose, individual patients, read-out: AUCall): 8210 ng·h/mL | Cmax [4]: 1350 ng/mL | MRT inf (in vivo, 115 mg/m2, Cycle 1 Day 15, Cohort A1, 115 mg/m2 per dose, individual patients, read-out: MRTINF_obs): 15.8 h | MRT inf (in vivo, 115 mg/m2, Cycle 1 Day 15, Cohort A1, 115 mg/m2 per dose, individual patients, read-out: MRTINF_pred): 15.7 h | AUC(0-t) [5]: 5370 ng·h/mL | AUC(0-inf) (in vivo, 115 mg/m2, Cycle 1 Day 15, patient N0773, Cohort B2, 115 mg/m2 per dose, Dose 75, read-out: AUCINF_obs): 6990 ng·h/mL | AUC(0-inf) (in vivo, 115 mg/m2, Cycle 1 Day 15, patient N0773, Cohort B2, 115 mg/m2 per dose, Dose 75, read-out: AUCINF_pred): 6860 ng·h/mL | AUC (in vivo, 115 mg/m2, Cycle 1 Day 15, patient N0773, Cohort B2, 115 mg/m2 per dose, Dose 75, read-out: AUC_TAU): 6950 ng·h/mL | AUC (in vivo, 115 mg/m2, Cycle 1 Day 15, patient N0773, Cohort B2, 115 mg/m2 per dose, Dose 75, read-out: AUCall): 5370 ng·h/mL | Cmax [5]: 1780 ng/mL | MRT inf (in vivo, 115 mg/m2, Cycle 1 Day 15, patient N0773, Cohort B2, 115 mg/m2 per dose, Dose 75, read-out: MRTINF_obs): 4.18 h | MRT inf (in vivo, 115 mg/m2, Cycle 1 Day 15, patient N0773, Cohort B2, 115 mg/m2 per dose, Dose 75, read-out: MRTINF_pred): 3.73 h | AUC (in vivo, 115 mg/m2, steady state, Cohort A1, 115 mg/m^2 QD, (CV), read-out: AUCtau): 8640 ng·h/mL | Cmax (in vivo, 115 mg/m2, steady state, Cohort A1, 115 mg/m^2 QD, (CV)): 1210 ng/mL | Tmax (in vivo, 115 mg/m2, steady state, Cohort A1, 115 mg/m^2 QD): 1.5 h | AUC (in vivo, 115 mg/m2, steady state, Cohort B2 (with topotecan/cyclophosphamide), 115 mg/m^2 QD, (CV), read-out: AUCtau): 7950 ng·h/mL | Cmax (in vivo, 115 mg/m2, steady state, Cohort B2 (with topotecan/cyclophosphamide), 115 mg/m^2 QD, (CV)): 1460 ng/mL | Tmax (in vivo, 115 mg/m2, steady state, Cohort B2 (with topotecan/cyclophosphamide), 115 mg/m^2 QD): 1 h | AUC (in vivo, 150 mg per dose, Cycle 1 Day 1, Cohort A2, 150 mg per dose, read-out: AUCall): 8360 ng·h/mL | AUC (in vivo, 150 mg per dose, Cycle 1 Day 15, Cohort A2, 150 mg per dose, read-out: AUCall): 8300 ng·h/mL | AUC (in vivo, 150 mg, Cycle 1 Day 15, Cohort A2, 150 mg per dose, read-out: AUC_TAU): 8300 ng·h/mL | AUC (plasma, oral, 45 mg/m2, Cohort A1, 45 mg/m2 per dose, C1D15, Geometric Mean, N 3, read-out: AUC_TAU): 2470 ng·h/mL | Cmax [6]: 355 ng/mL | Tmax [6]: 1.26 h | AUC (plasma, oral, 45 mg/m2, Cohort A1, 45 mg/m2 per dose, C1D15, Median, N 3, read-out: AUC_TAU): 3220 ng·h/mL | Cmax [7]: 287 ng/mL | Tmax [7]: 1 h | Tmax (plasma, oral, 45 mg/m2, Cohort A1, 45 mg/m2 per dose, C1D15, individual patient): 1 h | MRT last [8]: 7.18 h | Tmax [8]: 1 h | Tmax (plasma, oral, 45 mg/m2, Cycle 1 Day 15, Cohort A1, 45 mg/m2 per dose, individual patients): 1 h | AUC (plasma, oral, 45 mg/m^2, steady state (cycle 1, day 15), Cohort A1, 45 mg/m^2 QD, (CV), read-out: AUCtau): 2470 ng·h/mL | Cmax (plasma, oral, 45 mg/m^2, steady state (cycle 1, day 15), Cohort A1, 45 mg/m^2 QD, (CV)): 354 ng/mL | Tmax (plasma, oral, 45 mg/m^2, steady state (cycle 1, day 15), Cohort A1, 45 mg/m^2 QD): 1 h | AUC (plasma, oral, 60 mg/m2, Cohort A1, 60 mg/m2 per dose, C1D15, Geometric Mean, N 3, read-out: AUC_TAU): 3930 ng·h/mL | Cmax (plasma, oral, 60 mg/m2, Cohort A1, 60 mg/m2 per dose, C1D15, Geometric Mean, N 3): 492 ng/mL | AUC (plasma, oral, 60 mg/m2, Cohort A1, 60 mg/m2 per dose, C1D15, Median, N 3, read-out: AUC_TAU): 4140 ng·h/mL | Cmax [9]: 558 ng/mL | Tmax [9]: 2 h | AUC (plasma, oral, 60 mg/m2, Cohort A1, 60 mg/m2 per dose, C1D15, individual patient, read-out: AUC_TAU): 4140 ng·h/mL
